Reference: the CheMixHub viscosity set

Test: xn = mol fraction of the nth substance listed

CC(C)NC(C)C + CCCCCCO
viscosity [mPa·s], 101 kPa
Details | 298.15 K | 303.15 K | 308.15 K
x1 = 0.0503 | 3.969 | 3.366 | 2.859
x1 = 0.1067 | 3.51 | 3.018 | 2.588
x1 = 0.1499 | 3.195 | 2.751 | 2.379
x1 = 0.2041 | 2.823 | 2.438 | 2.114
x1 = 0.253 | 2.501 | 2.171 | 1.901
x1 = 0.3054 | 2.188 | 1.9 | 1.675
x1 = 0.4026 | 1.665 | 1.475 | 1.318
x1 = 0.4986 | 1.272 | 1.156 | 1.046
x1 = 0.6007 | 0.952 | 0.883 | 0.813
x1 = 0.7077 | 0.718 | 0.675 | 0.628
x1 = 0.7994 | 0.582 | 0.547 | 0.514
x1 = 0.8518 | 0.52 | 0.492 | 0.462
x1 = 0.9021 | 0.471 | 0.443 | 0.42
x1 = 0.9545 | 0.42 | 0.401 | 0.378

CCCCCCCCCCCO + CCCCCCO
viscosity [mPa·s], 101.8 kPa
Details | x2 = 0.1577 | x2 = 0.4196 | x2 = 0.6279 | x2 = 0.7981 | x2 = 0.9389
298.15 K | 12.3 | 9.508 | 7.506 | 6.064 | 4.788
308.15 K | 8.55 | 6.727 | 5.412 | 4.436 | 3.545
318.15 K | 6.083 | 4.876 | 3.983 | 3.309 | 2.68

CCOC(=O)CC(C)=O + CCCCCCO
viscosity [mPa·s], 100 kPa
Details | x1 = 0.1053 | x1 = 0.1983 | x1 = 0.2962 | x1 = 0.3947 | x1 = 0.4947 | x1 = 0.5989 | x1 = 0.6989 | x1 = 0.7954 | x1 = 0.892
293.15 K | 3.828 | 3.026 | 2.545 | 2.245 | 2.034 | 1.867 | 1.749 | 1.688 | 1.655
298.15 K | 3.286 | 2.644 | 2.285 | 2.022 | 1.809 | 1.651 | 1.571 | 1.555 | 1.538

CCCCCCn1cc[n+](C)c1.[Cl-] + CCCCCCn1cc[n+](C)c1.F[B-](F)(F)F
101 kPa
Details | viscosity [mPa·s]
303.15 K, x1 = 0.2 | 375.2
303.15 K, x1 = 0.4 | 795.2
308.15 K, x1 = 0.4 | 552.8
313.15 K, x1 = 0.4 | 394.5
318.15 K, x1 = 0.6 | 563.8
323.15 K, x1 = 0.6 | 403.5
323.15 K, x1 = 0.8 | 843.9

CCOC(=O)CC(C)=O + CCCCCO
viscosity [mPa·s], 100 kPa
Details | x1 = 0.0902 | x1 = 0.1791 | x1 = 0.2695 | x1 = 0.3621 | x1 = 0.4424 | x1 = 0.5633 | x1 = 0.6447 | x1 = 0.7739 | x1 = 0.8864
293.15 K | 2.988 | 2.424 | 2.132 | 1.935 | 1.8 | 1.67 | 1.635 | 1.603 | 1.599
298.15 K | 2.691 | 2.191 | 1.897 | 1.705 | 1.602 | 1.52 | 1.491 | 1.481 | 1.468

NCc1ccccc1 + CCCCCO
viscosity [mPa·s], 101.33 kPa
Details | x1 = 0.1 | x1 = 0.2004 | x1 = 0.2999 | x1 = 0.4 | x1 = 0.4997 | x1 = 0.6 | x1 = 0.7003 | x1 = 0.8 | x1 = 0.8999
298.15 K | 3.257 | 3.009 | 2.798 | 2.599 | 2.419 | 2.25 | 2.088 | 1.943 | 1.808
303.15 K | 2.82 | 2.607 | 2.436 | 2.25 | 2.124 | 1.971 | 1.842 | 1.72 | 1.616
308.15 K | 2.406 | 2.283 | 2.133 | 1.979 | 1.841 | 1.734 | 1.624 | 1.526 | 1.454

C=CCc1ccc(O)c(OC)c1 + CCCCCOC(C)=O
298.15 K, 101 kPa
Details | viscosity [mPa·s]
x1 = 0.1 | 0.698
x1 = 0.162 | 1.11

O=[N+]([O-])c1cccc(O)c1 + CCCCCOC(C)=O
Details | viscosity [mPa·s]
298.15 K, 101 kPa, x1 = 0.5 | 1.449

NCc1ccccc1 + CCCCN
viscosity [mPa·s], 100 kPa
Details | x2 = 0.1 | x2 = 0.2 | x2 = 0.3 | x2 = 0.4 | x2 = 0.5 | x2 = 0.6 | x2 = 0.7 | x2 = 0.8 | x2 = 0.9
303.15 K | 1.324 | 1.204 | 1.068 | 0.964 | 0.847 | 0.748 | 0.654 | 0.578 | 0.513
313.15 K | 1.125 | 1.021 | 0.929 | 0.835 | 0.737 | 0.642 | 0.567 | 0.506 | 0.45
323.15 K | 0.965 | 0.878 | 0.791 | 0.718 | 0.639 | 0.567 | 0.5 | 0.446 | 0.396

CC(C)NC(C)C + CCCCO
viscosity [mPa·s], 100 kPa
Details | 298.15 K | 303.15 K | 308.15 K
x1 = 0.0499 | 2.316 | 2.061 | 1.793
x1 = 0.1095 | 2.056 | 1.834 | 1.609
x1 = 0.1542 | 1.88 | 1.688 | 1.483
x1 = 0.2062 | 1.699 | 1.529 | 1.353
x1 = 0.25 | 1.552 | 1.405 | 1.251
x1 = 0.2969 | 1.414 | 1.285 | 1.149
x1 = 0.4059 | 1.129 | 1.037 | 0.94
x1 = 0.5062 | 0.916 | 0.849 | 0.777
x1 = 0.6009 | 0.755 | 0.707 | 0.656
x1 = 0.7043 | 0.62 | 0.583 | 0.548
x1 = 0.8059 | 0.516 | 0.489 | 0.467
x1 = 0.8543 | 0.477 | 0.451 | 0.432
x1 = 0.8987 | 0.444 | 0.42 | 0.402
x1 = 0.9489 | 0.408 | 0.391 | 0.374

CCOC(=O)CC(C)=O + CCCCO
viscosity [mPa·s], 100 kPa
Details | x1 = 0.077 | x1 = 0.1552 | x1 = 0.2375 | x1 = 0.324 | x1 = 0.4191 | x1 = 0.5209 | x1 = 0.6261 | x1 = 0.74 | x1 = 0.861
293.15 K | 2.378 | 2.032 | 1.795 | 1.639 | 1.567 | 1.564 | 1.56 | 1.565 | 1.603
298.15 K | 2.063 | 1.788 | 1.629 | 1.525 | 1.466 | 1.435 | 1.425 | 1.427 | 1.46

OCCO + CCCCO
298 K, 101.33 kPa
Details | viscosity [mPa·s]
x1 = 0.1527 | 3.18
x1 = 0.5229 | 6.05
x1 = 0.7115 | 8.75
x1 = 0.868 | 12.33
